Measurements taken from paper PMC2747507 (The Pediatric infectious disease journal, 2009).
Like-named read-outs stand apart in the source and are kept apart here. Numbered stars: 1 amine (or outer) side, 2 acyl side, 3 side chain; on linkers, the order of the positions; unused ones are H or OH. Bridge positions count the residues as written; N and C are the ends. Square brackets hold non-standard residues; d marks the D form. Peptide text beside a SMILES is read from it. * marks the point of attachment. hTyr(3S-OH,4S-OH,3'-OSO3H) = N[C@H](C(=O)O)[C@H](O)[C@@H](O)c1ccc(O)c(OS(=O)(=O)O)c1; Orn(4R-OH,5R-OH) = O=C([C@H](C[C@@H](O)[C@@H](O)N[*:3])N[*:1])[*:2]; Pro(3S-OH,4S-Me) = C[C@H]1CN[C@H](C(=O)O)[C@H]1O; X1 = CCCCCOc1ccc(-c2cc(-c3ccc(C(=O)*)cc3)no2)cc1; Gln(3R-OH) = NC(=O)C[C@@H](O)[C@H](N)C(=O)O; Hyp = O=C(O)[C@@H]1C[C@@H](O)CN1

Assays:
[1] = cited from earlier work
[2] = cited from earlier work; remark: listed apart in the source
[3] = test system: central nervous system infections; conditions: neutropenic rabbits; cited from earlier work
[4] = assay type: in vivo, human (preterm neonates)
[5] = assay type: in vivo, human (preterm neonates); conditions: 15 mg/kg/day IV
[6] = 12 neonates, 15 mg/kg/day IV for 5 days, not felt related to micafungin
[7] = neonates <1000 grams (n=7), mean (SD), SD
[8] = neonates ≥1000 grams (n=5), mean (SD), SD

Compound: CCCCCOc1ccc(-c2cc(-c3ccc(C(=O)N[C@H]4C[C@@H](O)[C@@H](O)NC(=O)[C@@H]5[C@@H](O)[C@@H](C)CN5C(=O)[C@H]([C@H](O)CC(N)=O)NC(=O)[C@H]([C@H](O)[C@@H](O)c5ccc(O)c(OS(=O)(=O)O)c5)NC(=O)[C@@H]5C[C@@H](O)CN5C(=O)[C@H]([C@@H](C)O)NC4=O)cc3)no2)cc1 [micafungin] (X1-[Orn(4R-OH,5R-OH)]T[Hyp][hTyr(3S-OH,4S-OH,3'-OSO3H)][Gln(3R-OH)][Pro(3S-OH,4S-Me)]; lactam 1-C)
- mean CL ([1]; 18 neonates > 1000 g, single IV dose 0.75, 1.5 or 3.0 mg/kg): 0.65 mL/min/kg
- CL ([1]; neonates < 1000g, single dose 0.75 mg/kg, data from 4 patients): 1.32 mL/min/kg
- Vdss in neonates from the previous study ([1]; single-dose study in neonates): 0.44 L/kg
- Vdss ([2]; adult studies): 0.26 L/kg
- average AUC ([2]; adults, 150 mg dose): 166.7 µg·h/mL
- CL ([2]; adults): 0.16 mL/min/kg
- CL ([2]; children ages 2–8 years): 0.38 mL/min/kg
- CL ([2]; children ages 9–17 years): 0.28 mL/min/kg
- treatment of central nervous system infections [3]: Successful treatment
- reported AE: hypochloremia [4, 6]: 33%
- reported AE: hypokalemia [4, 6]: 25%
- reported AE: hyponatremia [4, 6]: 42%
- reported AE: monocytosis [4, 6]: 25%
- renal toxicity and changes in hematology parameters ([4]; 12 neonates, baseline vs end of therapy): No evidence of renal toxicity or significant changes in hematology parameters
- deaths ([4]; 12 neonates, 3 days after completing the course of micafungin): One 540 g neonate died on day of life 11 from necrotizing enterocolitis
- Potassium, after 5th dose ([4]; median (IQR), prior to 1st dose 4.0 (3.4, 4.4), P 0.03): 4.6 mmol/L
- highest observed AUC0–24 ([5]; preterm neonates, maximum of n=12): 555.6 µg·h/mL
- Vdss [5, 7]: 1.637(0.657) L/kg
- Vdβ [5, 7]: 0.636(0.370) L/kg
- Vdss [5, 8]: 1.344(0.141) L/kg
- Vdβ [5, 8]: 0.581(0.106) L/kg
- Vdβ, volume of distribution in the elimination phase ([5]; whole cohort n=12, mean (SD), SD): 0.613(0.282) L/kg
- Cmax ([5]; whole cohort n=12, obtained directly from the data, mean (SD), SD): 38.4(8.8) ug/mL
- Vdss ([5]; whole cohort n=12, weight-normalized, mean (SD), SD): 1.515(0.516) L/kg
